A word on the IC50: it is the point on the concentration scale where inhibition reaches its midpoint. A lower IC50 goes with greater potency in that assay.

The structures appear in SMILES notation. Bounds are passed on as bounds.

The text below walks through data of patent publication US9969749B2, “Inhibitors of IRAK4 activity” (MERCK SHARP & DOHME CORP., priority 2014, dated 2018).

In this assay the target is IRAK4 (Homo sapiens (Human), UniProt Q9NWZ3). Put plainly: IRAK4 Kinase Assay (IMAP fluorescence polarization). Type of assay: biochemical. Conditions: 0.5 nM GST tagged IRAK4, 100 μM ATP, 100 nM fluorescent peptide substrate RP7030, 30 minutes at 25° C. The method in brief: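 GST-tagged IRAK4 (0.5 nM) phosphorylates 100 nM fluorescent peptide with 100 μM ATP in 10 mM Tris pH 7.2, 1 mM MgCl2, 1 mM DTT, 0.01% Tween 20 for 30 min at 25 °C. Phosphorylation read as IMAP nanoparticle-binding fluorescence polarization after stop reagent.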
IRAK4, sequence (Q9NWZ3 whole entry): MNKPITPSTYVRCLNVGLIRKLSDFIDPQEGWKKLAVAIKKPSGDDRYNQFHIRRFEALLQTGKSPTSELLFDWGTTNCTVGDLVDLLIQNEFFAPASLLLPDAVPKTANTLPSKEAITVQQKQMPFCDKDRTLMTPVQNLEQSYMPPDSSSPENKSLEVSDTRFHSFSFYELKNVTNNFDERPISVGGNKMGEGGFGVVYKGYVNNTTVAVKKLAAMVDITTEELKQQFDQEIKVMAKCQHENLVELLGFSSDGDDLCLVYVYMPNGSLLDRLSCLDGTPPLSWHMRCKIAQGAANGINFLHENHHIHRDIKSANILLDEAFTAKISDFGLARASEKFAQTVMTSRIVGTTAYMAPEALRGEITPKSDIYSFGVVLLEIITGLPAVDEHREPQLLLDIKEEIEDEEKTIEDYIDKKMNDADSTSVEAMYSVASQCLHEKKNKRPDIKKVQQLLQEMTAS
For `CN(C)[C@H]1CC[C@H](Nc2ncnc3ccc(-c4cc(O)cc(F)c4)cc23)CC1` [Example 1-63, 3-(4-{[trans-4-(dimethylamino)cyclohexyl]amino}quinazolin-6-yl)-5-fluorophenol], the IC50 was 3 nM. In turn, `CN(C)[C@H]1CC[C@H](Nc2ncnc3ccc(-c4cc(O)c(F)c(F)c4)cc23)CC1` [Example 1-64, 5-(4-{[trans-4-(dimethylamino)cyclohexyl]amino}quinazolin-6-yl)-2,3-difluorophenol] yielded an IC50 of 4 nM. As for `Oc1cncc(-c2ccc3ncnc(N[C@H]4CC[C@H](N5CCOCC5)CC4)c3c2)c1` [Example 1-65, 5-(4-{[trans-4-(morpholin-4-yl)cyclohexyl]amino}quinazolin-6-yl)pyridin-3-ol], the figure is < 0.5 nM; as for `Oc1cc(F)cc(-c2ccc3ncnc(N[C@H]4CC[C@H](N5CCOCC5)CC4)c3c2)c1` [Example 1-66, 3-fluoro-5-{4-[(trans-4-morpholin-4-ylcyclohexyl)amino]quinazolin-6-yl}phenol], 5 nM. On to `Oc1cc(-c2ccc3ncnc(N[C@H]4CC[C@H](N5CCOCC5)CC4)c3c2)ccn1` [Example 1-67, 4-{4-[(trans-4-morpholin-4-ylcyclohexyl)amino]quinazolin-6-yl}pyridin-2-ol], for which the midpoint of inhibition, the IC50, lay at 15 nM.

In turn, `Fc1cc(F)cc(-c2ccc3ncnc(N[C@H]4CC[C@H](N5CCOCC5)CC4)c3c2)c1` [Example 1-68, 6-(3,5-difluorophenyl)-N-(trans-4-morpholin-4-ylcyclohexyl)quinazolin-4-amine] displayed an IC50 of 25 nM.

In the case of `COc1cncc(-c2ccc3ncnc(N[C@H]4CC[C@H](N5CCOCC5)CC4)c3c2)c1` [Example 1-69, 6-(5-methoxypyridin-3-yl)-N-[trans-4-(morpholin-4-yl)cyclohexyl]quinazolin-4-amine], the IC50 was found to be 18 nM. The IC50 values of the last two compounds are within 1.5-fold of each other. For `Oc1cc(-c2ccc3ncnc(N[C@H]4CC[C@H](N5CCOCC5)CC4)c3c2)cc(F)c1F` [Example 1-70, 2,3-difluoro-5-{4-[(trans-4-morpholin-4-ylcyclohexyl)amino]quinazolin-6-yl}phenol], the IC50 is 5 nM. For `COc1ncc(-c2ccc3ncnc(N[C@H]4CC[C@H](N5CCOCC5)CC4)c3c2)cc1N` [Example 1-71, 6-(5-amino-6-methoxypyridin-3-yl)-N-(trans-4-morpholin-4-ylcyclohexyl)quinazolin-4-amine], half-maximal inhibition (IC50) was put at 17 nM. For `Oc1cccc(-c2ccc3ncnc(N[C@H]4CC[C@H](N5CCOCC5)CC4)c3c2)c1` [Example 1-72, 3-{4-[(trans-4-morpholin-4-ylcyclohexyl)amino]quinazolin-6-yl}phenol], half-maximal inhibition (IC50) required 6 nM. As for `Nc1cncc(-c2ccc3ncnc(N[C@H]4CC[C@H](N5CCOCC5)CC4)c3c2)c1` [Example 1-73, 6-(5-aminopyridin-3-yl)-N-(trans-4-morpholin-4-ylcyclohexyl)quinazolin-4-amine], the figure is 1 nM. As for `Nc1cc(-c2ccc3ncnc(N[C@H]4CC[C@H](N5CCOCC5)CC4)c3c2)ccn1` [Example 1-74, 6-(2-aminopyridin-4-yl)-N-(trans-4-morpholin-4-ylcyclohexyl)quinazolin-4-amine], the figure is 3 nM. Turning to `Cn1cc(-c2ccc3ncnc(N[C@H]4CC[C@H](N5CCOCC5)CC4)c3c2)cn1` [Example 1-75, 6-(1-methyl-1H-pyrazol-4-yl)-N-(trans-4-morpholin-4-ylcyclohexyl)quinazolin-4-amine], the IC50 came to 39 nM. Take `Cc1c(-c2cncnc2)ccc2ncnc(N[C@H]3CC[C@H](N4CCOCC4)CC3)c12` [Example 1-76, 5-methyl-N-(trans-4-morpholin-4-ylcyclohexyl)-6-pyrimidin-5-ylquinazolin-4-amine]: the IC50 is 223 nM. As for `Cc1c(-c2cnn(C)c2)ccc2ncnc(N[C@H]3CC[C@H](N4CCOCC4)CC3)c12` [Example 1-77, 5-methyl-6-(1-methyl-1H-pyrazol-4-yl)-N-(trans-4-morpholin-4-ylcyclohexyl)quinazolin-4-amine], the figure is 1310 nM.
